Consider 45 compounds from patent US10174029B2, “Pyrimidine-2,4-diamine derivatives for treatment of cancer” (THOMAS HELLEDAYS STIFTELSE FOR MEDICINSK FORSKNING, priority 2012, dated 2019).

The target of the first assay is MTH1 (Homo sapiens, UniProt P36639). The assay can be described thus: MTH1 enzymatic assay and IC50 value determination (malachite green). Type of assay: biochemical. The conditions noted are these: MTH1 4.8 nM, dGTP 100 μM, 15 minutes at 22° C.; group: between 2 μM and 10 μM. The method, then:
MTH1 Enzymatic Assay and IC50 Value Determination
MTH1 catalyzes the hydrolysis of dGTP to dGMP and PPi. By coupling the reaction to pyrophosphatase added in excess PPi is converted to Pi that can be detected by using the malachite green assay reagent. Briefly, for IC50 value determination the compound to be analyzed is diluted in assay buffer in a 1:3 dilution series generating 12 different compound concentrations giving a final DMSO concentration of 1% in the assay well. MTH1 diluted in assay buffer (100 mM Tris-acetate, 40 mM NaCl, 10 mM magnesium acetate, 1 mM DTT and 0.005% Tween 20) fortified with E. coli pyrophosphatase (0.8 U/ml) is added to a final concentration of 4.8 nM. dGTP diluted in assay buffer is added to a final concentration of 100 μM. The reaction mixture is incubated with shaking for 15 minutes at 22° C. To 100 μl reaction mixture is 25 μl Malachite green assay regent (0.095% Malachite green in 17% H2SO4, 1.5% Ammonium molybdate, 0.17% Tween 20) added followed by incubation with shaking for 15 minutes at 22° C.
The absorbance of the assay plate is read at 630 nm using an EnVision Multilabel plate reader. The IC50 value is determined by fitting a dose response curve to the data points using nonlinear regression analysis and the equation Y=Bottom+(Top−Bottom)/(1+10^((Log IC50−X)*HillSlope)), where Y is the read absorbance at 630 nm and X is log [compound].
Usually IC50 stands for the concentration needed to halve the response being measured. Compound `Cc1cccc(-c2cc(NC3CCCCC3NC(=O)OC(C)(C)C)nc(N)n2)c1C` (mixture of isomers) [Example 372, tert-Butyl N-(2-{[2-amino-6-(2,3-dimethylphenyl)pyrimidin-4-yl]amino}cyclohexyl)-carbamate] gave a concentration for half-maximal inhibition (IC50) of 2000 to 10000 nM. The same measure, in the same setting: to `CCCNc1cc(-c2ccc(S(C)(=O)=O)cc2)nc(N)n1` [Example 5, 6-(4-methanesulfonylphenyl)-4-N-propylpyrimidine-2,4-diamine] belongs 2000 to 10000 nM. `Nc1nc(NCCN2CCOCC2)cc(-c2ccccc2)n1` [Example 12, 4-N-[2-(morpholin-4-yl)ethyl]-6-phenylpyrimidine-2,4-diamine]: the IC50 is 2000 to 10000 nM. On the same count and under the same terms, for `CC(C)(C)Nc1cc(-c2ccc(Cl)cc2)nc(N)n1` [Example 14, 4-N-tert-butyl-6-(4-chlorophenyl)pyrimidine-2,4-diamine] the value was 2000 to 10000 nM; for `Nc1nc(NC2CCOCC2)cc(-c2ccc(Cl)cc2)n1` [Example 15, 6-(4-chlorophenyl)-4-N-(oxan-4-yl)pyrimidine-2,4-diamine], 2000 to 10000 nM.

Take `CC(C)(C)Nc1cc(-c2cccc(C(F)(F)F)c2)nc(N)n1` [Example 20, 4-N-tert-butyl-6-[3-(trifluoromethyl)phenyl]pyrimidine-2,4-diamine]: the 50% inhibitory concentration (IC50) is 2000 to 10000 nM.

As for `Nc1nc(NC2CCOCC2)cc(-c2cccc(Cl)c2)n1` [Example 21, 6-(3-chlorophenyl)-4-N-(oxan-4-yl)pyrimidine-2,4-diamine], the IC50 fell in the range of 2000 to 10000 nM. The same measure, in the same setting: to `CNc1cc(-c2ccccn2)nc(N)n1` [Example 78, 4-N-methyl-6-(pyridin-2-yl)pyrimidine-2,4-diamine] belongs 2000 to 10000 nM.

Still in this assay, the particulars now being: MTH1 4.8 nM, dGTP 100 μM, 15 minutes at 22° C.; group: less than 200 nM.
Compound `CCCNc1cc(-c2ccccc2)nc(N)n1` [Example 4, 6-phenyl-4-N-propylpyrimidine-2,4-diamine] came in with an IC50 of less than 200 nM. The compound `Nc1nc(NCC2CC2)cc(-c2ccccc2)n1` [Example 6, 4-N-(cyclopropylmethyl)-6-phenylpyrimidine-2,4-diamine] yielded a 50% inhibitory concentration (IC50) of less than 200 nM. The same measure, in the same setting: to `Nc1nc(NCc2ccccc2)cc(-c2ccccc2)n1` [Example 11, 4-N-benzyl-6-phenylpyrimidine-2,4-diamine] belongs less than 200 nM; to `COc1ccc(-c2cc(NC3CC3)nc(N)n2)cc1` [Example 18, 4-N-cyclopropyl-6-(4-methoxyphenyl)pyrimidine-2,4-diamine], less than 200 nM. Same read-out and setting: for `CNc1cc(-c2ccc3c(ccn3S(=O)(=O)c3ccccc3)c2)nc(N)n1` [Example 31, 6-[1-(benzenesulfonyl)-1H-indol-5-yl]-4-N-methylpyrimidine-2,4-diamine] the value was less than 200 nM; for `CNc1cc(-c2ccccc2OC)nc(N)n1` [Example 32, 6-(2-methoxyphenyl)-4-N-methylpyrimidine-2,4-diamine], less than 200 nM. Still for that read-out and setting: to `CNc1cc(-c2cncc3ccccc23)nc(N)n1` [Example 35, 6-(isoquinolin-4-yl)-4-N-methylpyrimidine-2,4-diamine] belongs less than 200 nM; to `CNc1cc(-c2ccc(C(F)(F)F)cc2)nc(N)n1` [Example 36, 4-N-methyl-6-[4-(trifluoromethyl)phenyl]pyrimidine-2,4-diamine], less than 200 nM; to `CNc1cc(-c2cccc(C#N)c2)nc(N)n1` [Example 40, 3-[2-amino-6-(methylamino)pyrimidin-4-yl]benzonitrile], less than 200 nM. With `CNc1cc(-c2ccc(S(C)(=O)=O)cc2)nc(N)n1` [Example 43, 6-(4-methanesulfonylphenyl)-4-N-methylpyrimidine-2,4-diamine], the 50% inhibitory concentration (IC50) is less than 200 nM. On the same count and under the same terms, to `CNc1cc(-c2cccc(C(=O)N3CCOCC3)c2)nc(N)n1` [Example 44, 4-N-methyl-6-[3-(morpholine-4-carbonyl)phenyl]pyrimidine-2,4-diamine] belongs less than 200 nM; to `CNc1cc(-c2ccc(NS(C)(=O)=O)cc2)nc(N)n1` [Example 46, N-{4-[2-amino-6-(methylamino)pyrimidin-4-yl]phenyl}methanesulfonamide], less than 200 nM. On the same count and under the same terms, for `CNc1cc(-c2ccc(C#N)cc2)nc(N)n1` [Example 51, 4-[2-amino-6-(methylamino)pyrimidin-4-yl]benzonitrile] the value was less than 200 nM; for `CNc1cc(-c2cccc3ncccc23)nc(N)n1` [Example 52, 4-N-methyl-6-(quinolin-5-yl)pyrimidine-2,4-diamine], less than 200 nM; for `Nc1nc(NC2CCCC2)cc(-c2ccc(Cl)cc2)n1` [Example 55, 6-(4-chlorophenyl)-4-N-cyclopentylpyrimidine-2,4-diamine], less than 200 nM.

`COc1ccc(-c2cc(NC3CCCC3)nc(N)n2)cc1` [Example 56, 4-N-cyclopentyl-6-(4-methoxyphenyl)pyrimidine-2,4-diamine] gave an IC50 of less than 200 nM. The same measure, in the same setting: for `Nc1nc(NC2CCCC2)cc(-c2cccc(C(F)(F)F)c2)n1` [Example 57, 4-N-cyclopentyl-6-[3-(trifluoromethyl)phenyl]pyrimidine-2,4-diamine] the value was less than 200 nM. In the case of `COc1ccc(-c2cc(NC3CCC3)nc(N)n2)cc1` [Example 59, 4-N-cyclobutyl-6-(4-methoxyphenyl)pyrimidine-2,4-diamine], the 50% inhibitory concentration (IC50) was less than 200 nM.

On to `Nc1nc(NC2CCC2)cc(-c2cccc(Cl)c2Cl)n1` [Example 64, 4-N-cyclobutyl-6-(2,3-dichlorophenyl)pyrimidine-2,4-diamine], for which the concentration for half-maximal inhibition (IC50) is less than 200 nM.

In turn, `Nc1nc(NC2CCCC2)cc(-c2cccc(Cl)c2Cl)n1` [Example 65, 4-N-cyclopentyl-6-(2,3-dichlorophenyl)pyrimidine-2,4-diamine] displayed an IC50 of less than 200 nM. On the same count and under the same terms, for `CCNc1cc(-c2cccc(Cl)c2Cl)nc(N)n1` [Example 66, 6-(2,3-dichlorophenyl)-4-N-ethylpyrimidine-2,4-diamine] the value was less than 200 nM. Still for that read-out and setting: for `Nc1nc(NC2CCOC2)cc(-c2cccc(Cl)c2Cl)n1` (stereo not drawn) [Example 67, 6-(2,3-dichlorophenyl)-4-N-(oxolan-3-yl)pyrimidine-2,4-diamine] the value was less than 200 nM.

With `CNc1cc(-c2cc(F)c(F)cc2F)nc(N)n1` [Example 72, 4-N-methyl-6-(2,4,5-trifluorophenyl)pyrimidine-2,4-diamine], the IC50 is less than 200 nM.

`CNc1cc(-c2ccc(F)cc2OC)nc(N)n1` [Example 73, 6-(4-fluoro-2-methoxyphenyl)-4-N-methylpyrimidine-2,4-diamine] had an IC50 of less than 200 nM.

`CNc1cc(-c2cc(Cl)ccc2C)nc(N)n1` [Example 74, 6-(5-chloro-2-methylphenyl)-4-N-methylpyrimidine-2,4-diamine]: the IC50 was less than 200 nM. Still for that read-out and setting: to `CNc1cc(-c2ccccc2Cl)nc(N)n1` [Example 77, 6-(2-chlorophenyl)-4-N-methylpyrimidine-2,4-diamine] belongs less than 200 nM; to `CNc1cc(-c2ccc(OC)c(C)c2)nc(N)n1` [Example 79, 6-(4-methoxy-3-methylphenyl)-4-N-methylpyrimidine-2,4-diamine], less than 200 nM; to `CNc1cc(-c2ccc(F)c(Cl)c2)nc(N)n1` [Example 80, 6-(3-chloro-4-fluorophenyl)-4-N-methylpyrimidine-2,4-diamine], less than 200 nM. `CNc1cc(-c2ccc(OC(F)(F)F)cc2)nc(N)n1` [Example 81, 4-N-methyl-6-[4-(trifluoromethoxy)phenyl]pyrimidine-2,4-diamine] showed an IC50 of less than 200 nM. Still for that read-out and setting: for `CNc1cc(-c2cccc(C(F)(F)F)c2F)nc(N)n1` [Example 85, 6-[2-fluoro-3-(trifluoromethyl)phenyl]-4-N-methylpyrimidine-2,4-diamine] the value was less than 200 nM; for `CNc1cc(-c2cccc(Cl)c2F)nc(N)n1` [Example 87, 6-(3-chloro-2-fluorophenyl)-4-N-methylpyrimidine-2,4-diamine], less than 200 nM.

As for `CNc1cc(-c2ccccc2C(F)(F)F)nc(N)n1` [Example 89, 4-N-methyl-6-[2-(trifluoromethyl)phenyl]pyrimidine-2,4-diamine], the IC50 was less than 200 nM.

Regarding `CNc1cc(-c2cccc3c2cnn3C)nc(N)n1` [Example 90, 4-N-methyl-6-(1-methyl-1H-indazol-4-yl)pyrimidine-2,4-diamine], the 50% inhibitory concentration (IC50) is less than 200 nM. Still for that read-out and setting: for `CNc1cc(-c2cccc(F)c2F)nc(N)n1` [Example 93, 6-(2,3-difluorophenyl)-4-N-methylpyrimidine-2,4-diamine] the value was less than 200 nM; for `CNc1cc(-c2cc(Cl)c3c(c2)OCO3)nc(N)n1` [Example 97, 6-(7-chloro-2H-1,3-benzodioxol-5-yl)-4-N-methylpyrimidine-2,4-diamine], less than 200 nM; for `CNc1cc(-c2ccc(OC)c(Cl)c2Cl)nc(N)n1` [Example 98, 6-(2,3-dichloro-4-methoxyphenyl)-4-N-methylpyrimidine-2,4-diamine], less than 200 nM. The same measure, in the same setting: for `CNc1cc(-c2cccc(CO)c2)nc(N)n1` [Example 101, {3-[2-amino-6-(methylamino)pyrimidin-4-yl]phenyl}methanol] the value was less than 200 nM.
